Laboratory results as given in patent US12116358B2, “Substituted indoles and methods of use thereof” (EPIZYME, INC., priority 2018, dated 2024).
Where two headings read alike, the source gives them in different places.

Tests used:
[1] = system: H3K36me3 in A549 cells; assay: In-Cell Western (ICW) assay of SETD2 inhibitors (A549 assay); format: cell-based, human; settings: A549 cells, read-out: SETD2 A549
Method in brief: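 H3K36me3 In-Cell Western: cells exposed to compound for 3 days at 4,000 cells/well, 37° C. DRAQ5 (1:1000) marked cell number, with 700/800-channel Licor read-out.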

[2] = target: T1, SETD2(1434-1711) (Homo sapiens, UniProt Q9BYW2); assay: SETD2 (1434-1711) assay; format: biochemical; settings: read-out: SETD2 (1434-1711)
T1 construct: SETD2 (1434-1711) Assay; catalogue N/A
T1 sequence (Q9BYW2 1434-1711): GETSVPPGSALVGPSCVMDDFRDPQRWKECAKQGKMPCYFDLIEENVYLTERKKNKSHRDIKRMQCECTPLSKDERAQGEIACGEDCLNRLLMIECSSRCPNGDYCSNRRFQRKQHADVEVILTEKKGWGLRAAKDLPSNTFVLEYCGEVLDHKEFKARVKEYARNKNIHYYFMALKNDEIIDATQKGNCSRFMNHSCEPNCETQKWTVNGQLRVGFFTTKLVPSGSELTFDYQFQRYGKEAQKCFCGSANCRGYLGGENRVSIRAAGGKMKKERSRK

Structure (SMILES)	IC50 ([1]; Homo sapiens) [µM]	IC50 [2] [µM]	IC50 [1] [µM]
Cc1ccc(F)c2cc(C(=O)Nc3cccc(N4CC(C)OCC4C)c3)[nH]c12 (stereo not drawn) [compound 289]	1.1	0.4	–
CC(=O)N1CCN(C2COCC(NC(=O)c3cc4c(F)ccc(C)c4[nH]3)C2)CC1 (stereo not drawn) [compound 363]	–	1.5	> 2
Cc1ccc(F)c2cc(C(=O)N[C@@H]3CCC[C@H](N4CCN(C(=O)OC5CCOCC5)CC4)C3)[nH]c12 [compound 999]	0.06	0.01	–
Cc1ccc(F)c2cc(C(=O)Nc3cccc(-c4ccc(Cn5ccnc5)cc4)c3)[nH]c12 [compound 228]	–	0.08	0.5
CC(=O)N1CCN([C@H]2CCC[C@@H](NC(=O)c3cc4c(F)ccc(C)c4[nH]3)C2)C2(CC2)C1 [compound 1024]	0.06	0.05	–
Cc1ccc(F)c2cc(C(=O)Nc3cccc(N4CCC5(CC4)CN(C)C5)c3)[nH]c12 [compound 98]	–	0.009	0.2
Cc1ccc(F)c2cc(C(=O)N[C@@H]3CCC[C@@H](N4CCn5c(nnc5C(F)(F)F)C4)C3)[nH]c12 [compound 990]	> 2	3.2	–
CC(=O)N1CC2CC1CN2c1cccc(NC(=O)c2cc3c(F)ccc(C)c3[nH]2)c1 (stereo not drawn) [compound 292]	–	0.7	1.1
Cc1ccc(F)c2cc(C(=O)Nc3cc(F)cc(N4CC5(CCN(CC(F)F)CC5)C4)c3)[nH]c12 [compound 40]	–	0.04	0.1
Cc1ccc(F)c2cc(C(=O)Nc3cccc(N4CCN(c5ccccc5)CC4)c3)[nH]c12 [compound 312]	1.3	0.8	–
CCN(CC)CCC(=O)N[C@H]1CC[C@H](NC(=O)c2cc3cccc(C)c3[nH]2)CC1 [compound 589]	> 25	43.6	–
Cc1cccc2cc(C(=O)Nc3cccc(N4CCC(NCCN)CC4)c3)[nH]c12 [compound 452]	5.7	0.06	–
Cc1cccc2cc(C(=O)NC3CN(C(=O)CCCN)C3)[nH]c12 [compound 594]	> 25	> 50	–
Cc1ccc(F)c2cc(C(=O)Nc3cccc(N4CCC(N5CC(O)C5)C4)c3)[nH]c12 (stereo not drawn) [compound 174]	0.3	0.05	–
Cc1ccc(F)c2cc(C(=O)NC3C(=O)NCCc4cccnc43)[nH]c12 (stereo not drawn) [compound 361]	> 2	1.3	–
Cc1ccc(F)c2cc(C(=O)Nc3cccc(C(=O)N(C)C)c3)[nH]c12 [compound 329]	1.6	0.6	–
Cc1cccc2cc(C(=O)NCCc3ccccc3N3CCOCC3)[nH]c12 [compound 511]	15.8	11.6	–
Cc1ccc(F)c2cc(C(=O)Nc3cccc(S(C)(=O)=O)c3)[nH]c12 [compound 399]	–	1.8	2.4
Cc1ccc(F)c2cc(C(=O)N[C@@H]3CCC[C@H](N4CCC5(CC4)CNC(=O)C5)C3)[nH]c12 [compound 928]	0.9	0.03	–
Cc1ccc(F)c2cc(C(=O)Nc3cccc(N4CCCC(N)C4)c3)[nH]c12 (stereo not drawn) [compound 310]	1.3	0.05	–
CC(=O)N1CCC2(CC1)CN(c1cc(F)cc(NC(=O)c3cc4c(F)ccc(C)c4[nH]3)c1)C2 [compound 19]	–	0.01	0.06
Cc1ccc(F)c2cc(C(=O)Nc3cc(F)cc([C@H]4CC[C@@H](N5CCOCC5)CC4)c3)[nH]c12 [compound 35]	0.08	0.006	–
Cc1ccc(F)c2cc(C(=O)N[C@@H]3CCC[C@H](N4CCN(C)C(=O)C4C)C3)[nH]c12 (stereo partly drawn) [compound 884]	0.2	0.1	–
Cc1ccc(F)c2cc(C(=O)N[C@@H]3CCC[C@H](N4CCC(N(C)C(=O)CN(C)C)C4)C3)[nH]c12 (stereo partly drawn) [compound 908]	0.6	0.004	–
Cc1cccc2cc(C(=O)NC3CCC(NC(=O)CCN)C3)[nH]c12 (stereo not drawn) [compound 600]	> 25	> 50	–
Cc1ccc(F)c2cc(C(=O)Nc3cccc(N4CCC(N5CCOCC5)C4)c3)[nH]c12 (stereo not drawn) [compound 74]	–	0.03	0.2
CC(=O)N1CCN([C@@H]2C[C@@H](NC(=O)c3cc4c(F)ccc(C)c4[nH]3)CN(C)C2)CC1 [compound 1108]	> 2	> 10	–
Cc1ccc(F)c2cc(C(=O)N[C@@H]3CCC[C@H](c4ccncn4)C3)[nH]c12 [compound 1003]	0.2	0.03	–
Cc1ccc(F)c2cc(C(=O)Nc3cc(F)cc(N4CCN(C5CC5)C(=O)C4)c3)[nH]c12 [compound 10]	–	0.01	0.04
CC(=O)N1[C@H](C)CN([C@@H]2CCC[C@@H](NC(=O)c3cc4c(F)ccc(C)c4[nH]3)C2)C[C@H]1C [compound 1193]	> 2	0.6	–
